These are literature values, as cited in patent US20140288136A1, “METHODS AND USES OF CYTOCHROME P450 INHIBITORS” (ANGION BIOMEDICA CORP, priority 2009, published 2014).

Read-outs that look alike come from different tables or passages of the source.

The series has as its system hepatitis C. To be noted: chronic hepatitis C infection.

Turning to interferon, the response by setting is: (in combination with ribavirin) about 50%; (used alone) about 20%.
